Results published in patent US10703765B2 (priority 2014, dated 2020).
Counter-ions that a name gives are not always drawn. Like-named read-outs stand apart in the source and are kept apart here.

Target: human σ1 receptor (Homo sapiens, UniProt Q99720)
Assay: biochemical
Format: binding
Set-up: μ and σ1 dual binding: key to the marks not given beside the values
[1] = read-out: μ and σ1 dual binding
[2] = combined class from Ki-σ1 (human σ1 receptor, A1) and Ki-μ (human μ-opioid receptor, A2) radioligand binding

human σ1 receptor, sequence (Q99720 whole entry): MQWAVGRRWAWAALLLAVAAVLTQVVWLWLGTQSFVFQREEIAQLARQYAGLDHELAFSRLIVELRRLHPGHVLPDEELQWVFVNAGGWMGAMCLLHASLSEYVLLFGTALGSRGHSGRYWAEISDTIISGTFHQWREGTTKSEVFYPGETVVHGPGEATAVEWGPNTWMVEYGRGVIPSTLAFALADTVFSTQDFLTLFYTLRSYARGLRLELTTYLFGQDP

## CC1OC2(CCN(CCc3cccnc3N)CC2)CN(c2cnccc2C(F)(F)F)C1=O (centres unmarked) [Example 240, 9-(2-(2-aminopyridin-3-yl)ethyl)-2-methyl-4-(4-(trifluoromethyl)pyridin-3-yl)-1-oxa-4,9-diazaspiro[5.5]undecan-3-one hydrochloride]
[1]
  Ki: > 500 nM

## CC(=O)Nc1ccc(CCN2CCC3(CC2)CN(c2ccccc2)C(=O)C(C)O3)cc1.Cl (centres unmarked) [Example 241, N-(4-(2-(2-methyl-3-oxo-4-phenyl-1-oxa-4,9-diazaspiro[5.5]undecan-9-yl)ethyl)phenyl)acetamide hydrochloride]
  μ and σ1 dual binding: ++

## CC(=O)Nc1cccc(N2CC3(CCN(CCc4ccccc4)CC3)OC(C)C2=O)c1 (centres unmarked) [Example 242, N-(3-(2-methyl-3-oxo-9-phenethyl-1-oxa-4,9-diazaspiro[5.5]undecan-4-yl)phenyl)acetamide]
  μ and σ1 dual binding: ++

## CC(=O)Nc1cccc(CCN2CCC3(CC2)CN(c2ccccc2)C(=O)C(C)O3)c1 (centres unmarked) [Example 243, N-(3-(2-(2-methyl-3-oxo-4-phenyl-1-oxa-4,9-diazaspiro[5.5]undecan-9-yl)ethyl)phenyl)acetamide]
[1]
  Ki: < 500 nM

## CC(=O)Nc1cccc(CCN2CCC3(CC2)CN(c2ccccc2)C(=O)[C@H](C)O3)c1 [Example 244a, (S)-N-(3-(2-(2-methyl-3-oxo-4-phenyl-1-oxa-4,9-diazaspiro[5.5]undecan-9-yl)ethyl)phenyl)acetamide hydrochloride]
[1]
  Ki: < 500 nM

## CC(=O)Nc1cccc(CCN2CCC3(CC2)CN(c2ccccc2)C(=O)[C@@H](C)O3)c1 [Example 244b, (R)-N-(3-(2-(2-methyl-3-oxo-4-phenyl-1-oxa-4,9-diazaspiro[5.5]undecan-9-yl)ethyl)phenyl)acetamide hydrochloride]
[1]
  Ki: < 100 nM

## CC(=O)Nc1ccccc1CCN1CCC2(CC1)CN(c1ccccc1)C(=O)C(C)O2 (centres unmarked) [Example 245, N-(2-(2-(2-methyl-3-oxo-4-phenyl-1-oxa-4,9-diazaspiro[5.5]undecan-9-yl)ethyl)phenyl)acetamide]
  μ and σ1 dual binding: ++

## CC(=O)Nc1cccc(CCN2CCC3(CC2)CN(c2ccccc2)C(=O)C2(CC2)O3)c1 [Example 246, N-[3-(2-{13-oxo-12-phenyl-4-oxa-8,12-diazadispiro[2.1.5.3]tridecan-8-yl}ethyl)phenyl]acetamide]
  Ki: < 500 nM

## CC(C)C(=O)Nc1cccc(CCN2CCC3(CC2)CN(c2ccccc2)C(=O)C(C)O3)c1 (centres unmarked) [Example 247, N-(3-(2-(2-methyl-3-oxo-4-phenyl-1-oxa-4,9-diazaspiro[5.5]undecan-9-yl)ethyl)phenyl)isobutyramide]
[2]
  μ and σ1 dual binding: ++

## CC1OC2(CCN(CCc3cccc(NC(=O)N(C)C)c3)CC2)CN(c2ccccc2)C1=O (centres unmarked) [Example 248, 1,1-dimethyl-3-(3-(2-(2-methyl-3-oxo-4-phenyl-1-oxa-4,9-diazaspiro[5.5]undecan-9-yl)ethyl)phenyl)urea]
[2]
  μ and σ1 dual binding: ++

## CC(=O)Nc1cccc(CN2CC3(CCN(CCc4ccccc4)CC3)OCC2=O)c1 [Example 249, N-(3-((3-oxo-9-phenethyl-1-oxa-4,9-diazaspiro[5.5]undecan-4-yl)methyl)phenyl)acetamide hydrochloride]
[1]
  Ki: > 500 nM

## CC(=O)Nc1cccnc1CCN1CCC2(CC1)CN(c1ccccc1F)C(=O)C(C)O2 (centres unmarked) [Example 250, N-(2-(2-(4-(2-fluorophenyl)-2-methyl-3-oxo-1-oxa-4,9-diazaspiro[5.5]undecan-9-yl)ethyl)pyridin-3-yl)acetamide]
[1]
  Ki: > 500 nM

## CC(=O)Nc1cccc(CCN2CCC3(CC2)CN(Cc2ccc(C(F)(F)F)cn2)C(=O)CO3)c1 [Example 251, N-(3-(2-(3-oxo-4-((5-(trifluoromethyl)pyridin-2-yl)methyl)-1-oxa-4,9-diazaspiro[5.5]undecan-9-yl)ethyl)phenyl)acetamide hydrochloride]
[1]
  Ki: < 500 nM

## CC(=O)Nc1ccc(CCN2CCC3(CC2)CN(c2ccccc2)C(=O)C(C)O3)nc1 (centres unmarked) [Example 252, N-(6-(2-(2-methyl-3-oxo-4-phenyl-1-oxa-4,9-diazaspiro[5.5]undecan-9-yl)ethyl)pyridin-3-yl)acetamide]
[1]
  Ki: > 500 nM

## CC(=O)Nc1ccnc(CCN2CCC3(CC2)CN(c2ccccc2)C(=O)C(C)O3)c1 (centres unmarked) [Example 253, N-(2-(2-(2-methyl-3-oxo-4-phenyl-1-oxa-4,9-diazaspiro[5.5]undecan-9-yl)ethyl)pyridin-4-yl)acetamide hydrochloride]
[1]
  Ki: > 500 nM

## CC(=O)Nc1cccc(CCN2CCC3(CC2)CN(c2ccccc2)C(=O)C(C)O3)n1.Cl (centres unmarked) [Example 254, N-(6-(2-(2-methyl-3-oxo-4-phenyl-1-oxa-4,9-diazaspiro[5.5]undecan-9-yl)ethyl)pyridin-2-yl)acetamide hydrochloride]
  μ and σ1 dual binding: ++

## CC(=O)Nc1cc(CCN2CCC3(CC2)CN(c2ccccc2)C(=O)C(C)O3)ccn1 (centres unmarked) [Example 255, N-(4-(2-(2-methyl-3-oxo-4-phenyl-1-oxa-4,9-diazaspiro[5.5]undecan-9-yl)ethyl)pyridin-2-yl)acetamide hydrochloride]
[1]
  Ki: > 500 nM

## CC1OC2(CCN(CCc3cccc(NS(C)(=O)=O)c3)CC2)CN(c2ccccc2)C1=O (centres unmarked) [Example 256, N-(3-(2-(2-methyl-3-oxo-4-phenyl-1-oxa-4,9-diazaspiro[5.5]undecan-9-yl)ethyl)phenyl)methanesulfonamide]
  Ki: < 500 nM

## CC1OC2(CCN(CCc3ccccc3NS(C)(=O)=O)CC2)CN(c2ccccc2)C1=O (centres unmarked) [Example 257, N-(2-(2-(2-methyl-3-oxo-4-phenyl-1-oxa-4,9-diazaspiro[5.5]undecan-9-yl)ethyl)phenyl)methanesulfonamide]
  Ki: < 500 nM

## CC1OC2(CCN(CCc3ccc(NS(C)(=O)=O)cc3)CC2)CN(c2ccccc2)C1=O (centres unmarked) [Example 258, N-(4-(2-(2-methyl-3-oxo-4-phenyl-1-oxa-4,9-diazaspiro[5.5]undecan-9-yl)ethyl)phenyl)methanesulfonamide]
[2]
  μ and σ1 dual binding: ++

## CS(=O)(=O)Nc1cccc(CN2CC3(CCN(CCc4ccccc4)CC3)OCC2=O)c1 [Example 259, N-(3-((3-oxo-9-phenethyl-1-oxa-4,9-diazaspiro[5.5]undecan-4-yl)methyl)phenyl)methanesulfonamide hydrochloride]
[1]
  Ki: > 500 nM

## CS(=O)(=O)Nc1cccc(CCN2CCC3(CC2)CN(c2ccccc2)C(=O)C2(CC2)O3)c1 [Example 260, N-[3-(2-{13-oxo-12-phenyl-4-oxa-8,12-diazadispiro[2.1.5.3]tridecan-8-yl}ethyl)phenyl]methanesulfonamide hydrochloride]
[1]
  Ki: < 500 nM

## CC1OC2(CCN(CCc3cccc(NS(=O)(=O)C(C)C)c3)CC2)CN(c2ccccc2)C1=O (centres unmarked) [Example 261, N-(3-(2-(2-methyl-3-oxo-4-phenyl-1-oxa-4,9-diazaspiro[5.5]undecan-9-yl)ethyl)phenyl)propane-2-sulfonamide hydrochloride]
  Ki: < 500 nM

## CC1OC2(CCN(CCc3cccc(NC(N)=O)c3)CC2)CN(c2ccccc2)C1=O (centres unmarked) [Example 262, 1-(3-(2-(2-methyl-3-oxo-4-phenyl-1-oxa-4,9-diazaspiro[5.5]undecan-9-yl)ethyl)phenyl)urea]
  Ki: < 500 nM

## NC(=O)Nc1cccc(CCN2CCC3(CC2)CN(Cc2ccc(C(F)(F)F)cn2)C(=O)C2(CC2)O3)c1 [Example 263, {3-[2-(13-oxo-12-{[5-(trifluoromethyl)pyridin-2-yl]methyl}-4-oxa-8,12-diazadispiro[2.1.5.3]tridecan-8-yl)ethyl]phenyl}urea]
[1]
  Ki: < 500 nM

## CC1OC2(CCN(CCc3cccc(NC(N)=O)n3)CC2)CN(c2ccccc2)C1=O (centres unmarked) [Example 264, 1-(6-(2-(2-methyl-3-oxo-4-phenyl-1-oxa-4,9-diazaspiro[5.5]undecan-9-yl)ethyl)pyridin-2-yl)urea]
  Ki: < 500 nM

## CC1OC2(CCN(CCc3cccc(NS(N)(=O)=O)c3)CC2)CN(c2ccccc2)C1=O (centres unmarked) [Example 265, N-[3-(2-{2-methyl-3-oxo-4-phenyl-1-oxa-4,9-diazaspiro[5.5]undecan-9-yl}ethyl)phenyl]aminosulfonamide]
[2]
  μ and σ1 dual binding: ++

## CC1OC2(CCN(CCc3cccc(C(N)=O)c3)CC2)CN(c2ccccc2)C1=O (centres unmarked) [Example 266, 3-(2-(2-methyl-3-oxo-4-phenyl-1-oxa-4,9-diazaspiro[5.5]undecan-9-yl)ethyl)benzamide]
  Ki: < 500 nM

## CC1OC2(CCN(CCc3ccc(C(=O)O)cc3)CC2)CN(c2ccccc2)C1=O (centres unmarked) [Example 267, 4-(2-(2-methyl-3-oxo-4-phenyl-1-oxa-4,9-diazaspiro[5.5]undecan-9-yl)ethyl)benzoic acid]
[1]
  Ki: > 500 nM

## CC1OC2(CCN(CCc3ccccc3)CC2)CN(c2cccc(C(=O)O)c2)C1=O (centres unmarked) [Example 268, 3-(2-methyl-3-oxo-9-phenethyl-1-oxa-4,9-diazaspiro[5.5]undecan-4-yl)benzoic acid]
[1]
  Ki: > 500 nM

## CC1OC2(CCN(CCC(=O)O)CC2)CN(c2ccccc2)C1=O (centres unmarked) [Example 269, 3-(2-methyl-3-oxo-4-phenyl-1-oxa-4,9-diazaspiro[5.5]undecan-9-yl)propanoic acid]
[1]
  Ki: > 500 nM

## O=C(O)CC1OC2(CCN(CCc3ccccc3)CC2)CN(c2ccccc2)C1=O (centres unmarked) [Example 270, 2-(3-oxo-9-phenethyl-4-phenyl-1-oxa-4,9-diazaspiro[5.5]undecan-2-yl)acetic acid hydrochloride]
[1]
  Ki: > 500 nM

## CC1OC2(CCN(CCc3ccccc3)CC2)CN(c2cccc(C(=O)N(C)C)c2)C1=O.Cl (centres unmarked) [Example 271, N,N-dimethyl-3-(2-methyl-3-oxo-9-phenethyl-1-oxa-4,9-diazaspiro[5.5]undecan-4-yl)benzamide hydrochloride]
  μ and σ1 dual binding: ++

## CN(C)C(=O)CC1OC2(CCN(CCc3ccccc3)CC2)CN(c2ccccc2)C1=O.Cl (centres unmarked) [Example 272, N,N-dimethyl-2-(3-oxo-9-phenethyl-4-phenyl-1-oxa-4,9-diazaspiro[5.5]undecan-2-yl)acetamide hydrochloride]
  μ and σ1 dual binding: ++

## CC1OC2(CCN(CCc3ccc(C(=O)N(C)C)cc3)CC2)CN(c2ccccc2)C1=O (centres unmarked) [Example 273, N,N-dimethyl-4-(2-(2-methyl-3-oxo-4-phenyl-1-oxa-4,9-diazaspiro[5.5]undecan-9-yl)ethyl)benzamide hydrochloride]
[1]
  Ki: > 500 nM
